Data set [1] deals with Bcl-2-overexpressing MM.1S cells. The data set is described as follows: viability of Bcl-2-overexpressing MM.1S cells. In kind it is cell-based. Conditions: 48 hours; 0, 12, 25 and 50 uM. The procedure:
Two cell-based assays were treated with NPI-1387 for 48 hours at concentrations of 0, 12, 25 and 50 uM. Both Bcl-2-overexpressing MM.1S cells and bortezomib-resistant DHL-4 lymphoma cells were used and the percentage of viable cells of each was recorded. […] (See FIG. 67).

Data set [2] has as its system bone marrow stromal cells (BMSCs). The data set is described as follows: viability of MM patient-derived bone marrow stromal cells (BMSCs). In kind it is cell-based. The text has this:
(§1) Besides nuclear condensation, NF-KB inhibitor triggered proteolytic cleavage of poly (ADP ribose) polymerase (PARP), a hallmark of apoptosis.

A further data set has as its system RPMI 8226 (MM). The data set can be described thus: 48 hr cytotoxicity, RPMI 8226. In kind it is cell-based, human. The procedure:
(§2) Human colon adenocarcinoma HT-29 (ATCC# HTB-38), prostate adenocarcinoma PC-3 (ATCC# CRL-1435), breast adenocarcinoma MDA-MB231 (ATCC# HTB-26), Multiple Myeloma RPMI 8226 (ATCC# CCL-155) and U266 (ATCC # TIB-196) cell lines and human normal fibroblast CCD-27sk (ATCC# CRL-1475) were all purchased from ATCC (Manassas, Va.). The cells were maintained in their respective ATCC recommended culture media at 37° C., 5% CO2 and 95% humidified air.
(§3) The cytotoxicity assays were performed by seeding individual cell lines at appropriate density in the 96 well flat-bottomed plates and allowed to attach for 24 hours at 37° C., 5% CO2 and 95% humidified air (RPMI 8226 and U266 cells were plated in 96 well plates on the day of compound addition). Serially diluted NPI-1387 was added in triplicate to cells at concentrations ranging from 160 nM to 20 μM. Final concentration of 0.25% (v/v) DMSO was used as the vehicle control. Cell viability was assessed 48 hours later by measuring the fluorescence of the reduction product of Resazurin by a Fusion microplate fluorometer (PerkinElmer) with λex=535 nm and λem=590 nm filters. The IC50 values (the drug concentration at which 50% of the maximal observed cytotoxicity is established) were calculated in XLFit 3.0 or XLFit 4.0 (ID Business Solutions Ltd) using a sigmoidal dose response model.

The next data set concerns HT-29 (Colon). The data set can be described thus: 48 hr cytotoxicity, HT-29. In kind it is cell-based, human. The procedure: as §2, §3
Data set [3] deals with peripheral blood mononuclear cells. The data set can be described thus: viability of peripheral blood mononuclear cells from normal healthy donors. In kind it is cell-based.
Excerpt: as §1

A further data set relates to Panc1 cells. The data set can be described thus: apoptosis by PI FACS analysis, Panc1. In kind it is cell-based, human. Conditions: combination treatment with Salinosporamide A, increased from 4%. The text has this: Novel diterpene inhibitors of NFκB derived from acanthoic acid (NPI-1342 (Formula IIB-a1) and NPI-1387; compound 24 under scheme 4 above) show measurable effects in human pancreatic cancer cell lines in vitro. Seven of the nine cell lines were moderately sensitive to apoptosis induced by death receptor ligand Tumor Necrosis Factor (TNF) related apoptosis-inducing ligand (TRAIL). […] Specific silencing of NFkB/p65 expression mimicked these effects. Furthermore, combination treatment of Salinosporamide A and either NPI-1342 or NPI-1387 led to induction of apoptosis as measured by PI FACS analysis. Specifically, levels of DNA fragmentation increased from 4% to 50% in HS766T cells and from 4% to 52% in Panc1 cells. The inhibitory effects of NPI-1342, NPI-1387 on NFκB were evaluated by Electromobility Shift Assays and confirmed by confocal microscopy.
(Flow cytometry measures light scatter and fluorescence of single cells or particles in a stream.)

In data set [4] the test system is IκBα and p38 MAP kinase phosphorylation. The data set is described as follows: LPS- or TNF-α-induced phosphorylation of IκBα and p38 MAP kinase in RPMI 8226 cells. In kind it is cell-based. Conditions: 13 μM. The procedure:
One ml/well of 2×10^6/ml RPMI 8226 cells (#CCL-155C, American Type Culture Collection) were seeded in 6-well plate in LGM-3 medium and cultured for overnight at 37° C., 5% CO2 and 95% humidified air. Formula (IIB-A1) was added to RPMI 8226 cells at the final concentration of 13 μM for 1 hr. DMSO was used as a control. Cells were then either stimulated by LPS (50 ng/ml) or by TNF-α (10 ng/ml) for various length of time. At the end of each period of stimulation, cells were harvested by centrifugation and cell pellets were washed once in ice-cold 1× Dulbecco's Phosphate buffered Saline (DPBS). To prepare samples for SDS-PAGE, cells were lysed in RIPA buffer (50 mM Tris-HCl, pH7.4, 0.9% NaCl, 1% Triton X-100, 0.25% Na-deoxycholate, 1 mM EDTA, 2 mM Na3VO4 and 1× protease inhibitors cocktail) for 15 min on ice. Cell lysates were cleared by centrifugation at 14,000 rpm, 4° C. for 10 min. Protein concentrations of cell lysates were determined by BCA protein assay kit prior to SDS-PAGE. Equal amount of proteins from various cell lysates were resolved on 10% NuPage MES precast gels and transferred to nitrocellulose membranes according to the manufacturer's instructions. […]

Where two headings read alike, the source gives them in different places.

A word on the IC50: it is the concentration needed to halve the response being measured. The low end stands for greater potency in that assay, the high end for weaker potency in that assay.

On to `C=CC(=O)C1(C)CCCC2(C)C3=CCC(C)(C=C)C[C@@H]3CC[C@H]12` (stereo in doubt) [NPI-1387, 1-[(1S,4aS,7R)-1,4a,7-Trimethyl-7-vinyl-1,2,3,4,4a,6,7,8,8a,9,10,10a-dodecahydro-1-phenanthrenyl]-2-propen-1-one], for which the “percentage of viable cells” value in data set [1] was “marked decrease in the percentage of viable cells”. In addition, the “viability of bone marrow stromal (stem) cells” value in data set [2] is recorded as “does not affect the viability of bone marrow stem cells”; in data set [2] (listed as NF-KB inhibitor), “does not affect the viability”. The IC50 with RPMI 8226 (MM) was found to be 5.5 ± 0.8 µM; in the data set on RPMI 8226 (MM) (Homo sapiens, RPMI-8226, 48 h) it was 5.1 ± 1 µM; in the data set with HT-29 (Colon), 13 ± 6 µM; in the data set on HT-29 (Colon) (Homo sapiens, HT-29, 48 h), 14 ± 6 µM. Besides, the “toxicity against / change in viable peripheral blood mononuclear cells” value in data set [3] is “relatively minimal”; in data set [3] (listed as NF-KB inhibitor) it was “no significant toxicity”. For the same compound, in the data set with Panc1 cells, the “levels of DNA fragmentation” value was 52%.

Regarding `C=C[C@@]1(C)CCC=C2[C@H]1CC[C@@H]1[C@](C)(C(=O)NC3CCCCC3)CCC[C@@]21C` [Formula (IIB-A1), N-Cyclohexylamide Derivative of TTL], the “phosphorylation levels of IκBα and p38 MAP kinase induced by LPS and TNF-α in RPMI 8226 cells” value in data set [4] was “specifically inhibits LPS-induced phosphorylation of IκBα and p38 MAP kinase”; in data set [4] (listed as formula (IIB-A1)), “specifically decreases LPS-induced phosphorylation of IκBα and p38 MAP kinase”.

The record behind these values is patent US7893299B2, “Interleukin-1 and tumor necrosis factor-αmodulators; syntheses of such modulators and methods of using such modulators” (Nereus Pharmaceuticals, Inc., priority 2005, dated 2011).
